Measured values taken from article PMC9875641, “Ophthalmic Solution of Smart Supramolecular Peptides to Capture Semaphorin 4D against Diabetic Retinopathy” (Advanced Science, 2022).
Where a SMILES comes first, the peptide text is derived from it.

These molecules were tested against T1, sSema 4D (Homo sapiens, UniProt Q92854) (assay: SPRi binding affinity of TPs to sSema 4D). Conditions: SPRi (surface plasmon resonance imaging).
T1 construct: purchased Novoprotein Ltd. (Suzhou, China)
T1 sequence (Q92854 22-734 limits assumed): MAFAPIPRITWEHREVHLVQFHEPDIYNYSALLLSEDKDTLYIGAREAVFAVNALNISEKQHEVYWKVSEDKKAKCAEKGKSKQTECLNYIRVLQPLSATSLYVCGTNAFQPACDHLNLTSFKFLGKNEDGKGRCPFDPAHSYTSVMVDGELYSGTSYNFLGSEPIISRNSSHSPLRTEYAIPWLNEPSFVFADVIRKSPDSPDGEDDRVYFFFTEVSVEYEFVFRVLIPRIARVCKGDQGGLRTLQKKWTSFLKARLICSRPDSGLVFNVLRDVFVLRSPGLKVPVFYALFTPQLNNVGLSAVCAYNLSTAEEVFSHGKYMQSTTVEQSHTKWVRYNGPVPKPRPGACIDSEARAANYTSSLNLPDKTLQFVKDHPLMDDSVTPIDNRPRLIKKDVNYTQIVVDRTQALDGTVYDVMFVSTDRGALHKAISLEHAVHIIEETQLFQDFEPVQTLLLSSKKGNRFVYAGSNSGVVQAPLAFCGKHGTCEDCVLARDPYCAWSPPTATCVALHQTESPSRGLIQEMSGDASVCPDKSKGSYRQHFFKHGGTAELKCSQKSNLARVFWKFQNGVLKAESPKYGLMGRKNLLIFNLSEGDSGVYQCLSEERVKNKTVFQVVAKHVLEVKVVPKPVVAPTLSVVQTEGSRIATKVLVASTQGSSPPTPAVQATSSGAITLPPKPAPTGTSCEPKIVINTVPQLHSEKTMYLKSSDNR
Protocol: To carry out the library screening, we first labeled the sSema4D with fluorescein isothiocyanate isomer (FITC), as shown in Figure 2E. Next, ≈10^6 beads library was incubated with FITC‐labeled sSema4D for 6 hours. The beads were thoroughly washed with DMF, water and methanol. Finally, under the fluorescence microscope, the beads with […] to sSema4D or FITC‐labeled sSema4D through noncovalent bonding were identified in Figure 2F. We selected twelve strongest putative fluorescent beads by physical separation. Subsequently, the corresponding peptides were cleaved off with BrCN from beads and analyzed by automatic Edman sequencing. The structures and sequence of transformable peptides (TPs) were determined and summarized (Figure S2, Supporting Information). TP‐1 to TP‐12 were resynthesized into solid phase and purified by high performance liquid chromatography (HPLC). The binding affinity of TPs toward sSema 4D was measured by enzyme‐linked immunosorbent assay (ELISA) and surface plasmon resonance imaging (SPRi). […] TP‐2 and TP‐7 were selected as the candidate TP binding sSema 4D to construct SSP. Subsequent SSP monomers (SSP‐1, sequence: C16‐FFVLK‐KQKRPRH; SSP‐2 C16‐FFVLK‐KNKAAKG) were synthesized and characterized by HPLC and Matrix‐assisted laser desorption/ionization time‐of‐flight mass spectrometry (MALDI‐TOF‐MS).

| Kd [nM] | Compound |
| --- | --- |
| 64 | CC(C)[C@H](NC(=O)[C@H](CCCNC(=N)N)NC(=O)[C@H](C)NC(=O)[C@@H]1CCCN1C(=O)[C@H](C)NC(=O)[C@@H](N)CCCCN)C(=O)NCC(=O)O [TP-10] (H-KAPARVG-OH) |
| 41.7 | C[C@H](NC(=O)[C@H](C)NC(=O)[C@H](CCCCN)NC(=O)[C@H](CC(N)=O)NC(=O)[C@@H](N)CCCCN)C(=O)N[C@@H](CCCCN)C(=O)NCC(=O)O [TP-2] (H-KNKAAKG-OH) |
| 14.6 | N=C(N)NCCC[C@H](NC(=O)[C@@H]1CCCN1C(=O)[C@H](CCCNC(=N)N)NC(=O)[C@H](CCCCN)NC(=O)[C@H](CCC(N)=O)NC(=O)[C@@H](N)CCCCN)C(=O)N[C@@H](Cc1c[nH]cn1)C(=O)O [TP-7] (H-KQKRPRH-OH) |
